In US20190169597A1, “GENOME EDITING ENHANCERS” (bluebird bio, Inc., priority 2016, published 2019):
“Also recorded” adds a separate entry of the source. Structures can show the parent of a compound that is named as a salt.

Experiments:
[1] = system: BCL11A erythroid enhancer region in primary human CD34+ cells; experiment: HDR in bulk CD34+ cell population with BCL11A megaTAL and AAV donor template; assay type: cell-based; details: aminacrine 1.0 μM for 24 hours
Method: Primary human peripheral blood-derived CD34+ cells were cultured in cytokine-supplemented media for 48 hours. Cells were washed and electroporated with an mRNA encoding a megaTAL specific for the human BCL11A erythroid enhancer region. Cells were then incubated with AAV vector with or without aminacrine at a concentration of 1.0 μM for 24 hours, washed and cultured in cytokine-supplemented media. HDR was analyzed at regular timepoints by flow cytometry to determine BFP fluorescence.

primary T cells = experiment: Dose response of primary T cell viability and yield; assay type: cell-based, human; details: 24 hours at 30° C. or 37° C.
Method: (§1) T cells were purified, activated and electroporated with mRNA encoding TCRα-targeting megaTAL-Trex2 fusion as described in Example 1. Electroporated cells were cultured for 24 hours at either 30° C. or 37° C. with Tilorone, Aminacrine, Homidium Bromide (Ethidium Bromide) and Harmine. Cells were then washed to remove residual compound and cultured for an additional three days. After the three days of culture, the cells were stained with CD4, CD8 and CD3 and analyzed by flow cytometery as described in Example 1.

[2] = system: CCR5 locus in primary human CD34+ cells; experiment: Non-target control: CCR5-specific megaTAL combined with BCL11A-targeting AAV template in CD34+ cells; assay type: cell-based; details: aminacrine 0.3-3.0 μM for 24 hours
Method: (§2) Primary human peripheral blood-derived CD34+ cells were cultured in cytokine-supplemented media for 72 hours. Cells were washed and electroporated with either an mRNA encoding a megaTAL specific for the human BCL11A erythroid enhancer region or a megaTAL targeting the human CCR5 locus. Cells were then incubated with AAV vector with or without aminacrine at concentrations of 0 μM, 0.3 μM, 1.0 μM, and 3.0 μM for 24 hours, washed and cultured in cytokine-supplemented media. HDR was analyzed at regular timepoints by flow cytometry to determine BFP fluorescence.

[3] = system: TCRα gene in primary human T cells; experiment: Small molecule screen: megaTAL-mediated disruption of the TCRα gene detected by loss of CD3 cell surface staining; assay type: cell-based; details: 10 μM, 24 hours at 37° C., then three more days; proportion of CD4/CD8+ cells negative for CD3
Method: A small molecule screen (FIG. 1) was performed to identify candidate soluble factors which could modulate the efficiency of genomic editing at the TCR locus in primary human T cells.

[4] = system: BCL11A erythroid enhancer locus in primary human CD34+ cells; experiment: HDR of AAV BFP template at the BCL11A erythroid enhancer with BCL11A megaTAL in CD34+ cells; assay type: cell-based; details: aminacrine 0.3 μM, 1.0 μM, 3.0 μM for 24 hours
Method: Adeno-associated virus (AAV) plasmids containing a promoter, a GFP or BFP reporter transgene and a polyadenylation signal were designed, constructed, and verified. The transgene was flanked by either 1.3 kb and 1.0 kb homology arms to the BCL11A erythroid enhancer locus at DHS58 (Bauer et al., Science. 342(6155): 253-7 (2013)). rAAV is generated by transient transfection of HEK293T cells, as described in Example 3.
as §2

[5] = system: TCRα gene in primary T cells; experiment: Dose response of megaTAL-Trex2 TCRα gene disruption (NHEJ editing efficiency) in primary T cells; assay type: cell-based, human; details: 24 hours at 30° C. or 37° C.
Method: as §1

[6] = system: TCRα locus in primary human T cells; experiment: Aminacrine HDR assay: megaTAL-induced HDR of AAV MND-GFP transgene at the TCRα locus; assay type: cell-based; details: for % GFP positive cells: megaTAL +
Description: Adeno-associated virus (AAV) plasmids containing transgene cassettes comprising a promoter, a transgene encoding a fluorescent protein, and a polyadenylation signal were designed and constructed. The integrity of AAV ITR elements was confirmed with XmaI digest. The transgene expression cassette was placed between two homology regions within exon 1 of the TCRα gene to enable targeting by homologous recombination (AAV targeting vector) using a TCRα-targeting megaTAL. The 5′ and 3′ homology regions were ˜1500 bp and ˜1000 bp in length, respectively, and neither homology region contained the complete megaTAL target site. The transgene expression cassette contained a myeloproliferative sarcoma virus enhancer, negative control region deleted, d1587rev primer-binding site substituted (MND) promoter operably linked to a polynucleotide encoding a fluorescent polypeptide, e.g., green fluorescent protein (GFP). The expression cassettes also contain the SV40 late polyadenylation signal.
Recombinant AAV-6 (rAAV) was prepared by transiently co-transfecting HEK 293T cells with one or more plasmids providing the replication, capsid, and adenoviral helper elements necessary. rAAV was purified from the co-transfected HEK 293T cell culture using ultracentrifugation in an iodixanol-based gradient.
MegaTAL-induced homology directed repair (HDR) was evaluated in primary human T cells activated with CD3 and CD28 and cultured in complete media supplemented with IL-2. […] Controls included T cells containing megaTAL or rAAV targeting vector alone. Cells were cultured overnight at 30° C. in the presence or absence of two different doses of aminacrine. Five days post electroporation the frequency of GFP+ T cells was measured by flow cytometry.

[7] = system: human peripheral blood CD34+ cells; experiment: Methylcellulose colony forming assay of edited CD34+ cells; assay type: cell-based
Method: (§3) A potential caveat with using small molecules to enhance gene repair is the impact on hematopoietic stem and progenitor cell survival. The methylceulluose colony forming assay was used to determine the impact of aminacrine treatment on hematopoietic stem and progenitor cell survival in vitro. Human peripheral blood CD34+ cells were cultured in cytokine supplemented media, electroporated with mRNA encoding BCL11A-specific megaTAL and transduced with BCL11A-HDR AAV vector, as described in Example 4.
(§4) Cells were cultured in the presence or absence of aminacrine during the first 24 hours post-electroporation. Following this post-electroporation recovery step, cells were counted and plated into methylcellulose media.
After 14 days in methylcellulose culture, the erythroid burst-forming units (BFU) and hematopoietic colony forming units (CFU) were scored based on frequency and morphology. […] FIG. 6.

primary human T cells = experiment: Small molecule screen: cell yield (flow cytometry events in the live gate); details: 10 μM, 24 hours at 37° C., then three more days; number of flow cytometry events in the live gate
Method: Briefly, purified CD3+ primary human T cells were activated with CD3/CD28 magnetic beads and cultured for 48 hours in IL-2 supplemented complete RPMI media prior to bead removal. After bead removal, T cells were washed and electroporated with in vitro transcribed mRNA encoding a T cell receptor alpha (TCRα) targeting megaTAL-Trex2 fusion mRNA. Cells were then distributed into 384-well format and contacted with a library of ˜2000 known drugs, natural products, and other bioactive components (Microsource Discovery System's Spectrum Collection), with each drug at a final concentration of 10 μM. Cells were cultured with the compounds for 24 hours at 37° C. and then washed and cultured for an additional three days. Cells were then stained for CD3, CD4, and CD8 surface markers, and subjected to high-throughput volumetric flow cytometric analysis.
The number of flow cytometry events in the “live” gate of the FSC/SSC profile was used as a measure of cell yield.

[8] = system: BCL11A locus in primary human hematopoietic stem and progenitor cells; experiment: HDR in methylcellulose colonies derived from CD34+ cells, by flow cytometry; assay type: cell-based; details: samples treated with both megaTAL and rAAV vector
Method: as §3, §4
To determine whether treatment with aminacrine could yield elevated HDR rates in methylcellulose colonies derived from primary human hematopoietic stem and progenitor cells, colonies were harvested and analyzed by flow cytometry. […] FIG. 7.

## Nc1c2ccccc2nc2ccccc12 [Aminacrine, 9-aminoacridine]
[1]
  HDR frequency at the BCL11A locus (% BFP+ cells) in bulk CD34+ cells, in words: increased HDR frequency
[1]; listed as aminacrine
  HDR frequency at the BCL11A locus (% BFP+ cells) in bulk CD34+ cells, in words: increases HDR
Primary T cells
  T cell viability and yield, in words: minimal impact on cell viability
[2]
  Template capture via a non-homology driven NHEJ pathway, in words: not enhanced
  proportion of BFP+ cells with CCR5-specific megaTAL and BCL11A-targeting AAV template, in words: did not significantly increase
[2]; listed as aminacrine
  proportion of BFP+ cells with CCR5-specific megaTAL and BCL11A-targeting AAV template, in words: not at the non-target CCR5 locus
[3]
  % CD3 negative: 82.8%
[4]
  HDR frequency at the BCL11A locus (% BFP+ cells), in words: concentration-dependent increase in HDR frequency
[5]
  efficiency of TCRα disruption (proportion of CD3-negative cells), in words: Enhance MegaTAL-Mediated Gene Disruption; also recorded: substantially enhanced gene disruption
[6]; 10 μM aminacrine following megaTAL transfection, 18% without aminacrine
  % GFP+ (frequency of HDR events): 36%
[6]; Donor 783, Aminacrine 2 μM, AAV-GFP +
  % GFP positive cells: 25%
[6]; Donor 783, Aminacrine 2 μM, AAV-GFP −
  % GFP positive cells: 0
[6]; Donor 783, Aminacrine 10 μM, AAV-GFP +
  % GFP positive cells: 36%
[6]; Donor 783, Aminacrine 10 μM, AAV-GFP −
  % GFP positive cells: 0
[6]; Donor 855, Aminacrine 2 μM, AAV-GFP +
  % GFP positive cells: 41%
[6]; Donor 855, Aminacrine 2 μM, AAV-GFP −
  % GFP positive cells: 0
[6]; Donor 855, Aminacrine 10 μM, AAV-GFP +
  % GFP positive cells: 38%
[6]; Donor 855, Aminacrine 10 μM, AAV-GFP −
  % GFP positive cells: 0
[6]; T cells, aminacrine 2 μM and 10 μM overnight at 30° C.
  frequency of HDR events (% GFP+ cells), in words: concentration-dependent increase
[7]; 14 days in methylcellulose culture, aminacrine during first 24 hours post-electroporation
  lineage output of BFU and CFU colonies, in words: comparable lineage output and showed no overt lineage skewing
[7]; methylcellulose colony forming assay
  hematopoietic stem and progenitor cell survival, in words: does not Adversely Affect
Primary human T cells
  Cell Yield: 13621
[8]
  proportion of cells undergoing HDR in methylcellulose colonies, in words: increased the proportion of cells undergoing HDR

## C[C@@H]1C[C@@H]([C@H](O)CC2CC(=O)NC(=O)C2)C(=O)[C@@H](C)C1 [Cyclohexamide]
[3]
  % CD3 negative: 68.7%
Primary human T cells
  Cell Yield: 4166

## COc1cccc2c1C(=O)c1c(O)c3c(c(O)c1C2=O)C[C@@](O)(C(C)=O)C[C@@H]3O[C@H]1C[C@H](N)[C@H](O)[C@H](C)O1 [Daunorubicin]
[3]
  % CD3 negative: 73.3%
Primary human T cells
  Cell Yield: 35

## CCOc1ccc2nc3cc(N)ccc3c(N)c2c1 [Ethacridine Lactate]
[3]
  % CD3 negative: 70.4%
Primary human T cells
  Cell Yield: 14179

## COc1ccc2c(c1)[nH]c1c(C)nccc12 [Harmine]
[3]
  % CD3 negative: 75.1%
[5]
  efficiency of TCRα disruption (proportion of CD3-negative cells), in words: Enhance MegaTAL-Mediated Gene Disruption
Primary human T cells
  Cell Yield: 9581

## CC[n+]1c(-c2ccccc2)c2cc(N)ccc2c2ccc(N)cc21 [Homidium Bromide]
[3]
  % CD3 negative: 80.3%
[5]
  efficiency of TCRα disruption (proportion of CD3-negative cells), in words: Enhance MegaTAL-Mediated Gene Disruption
Primary human T cells
  Cell Yield: 1023

## CCN(CC)CCNc1ccc(CO)c2sc3ccccc3c(=O)c12 [Hycanthone]
[3]
  % CD3 negative: 74.1%
Primary human T cells
  Cell Yield: 10012

## OC[C@H]1O[C@@H](n2cnc3c(NCc4ccco4)ncnc32)[C@H](O)[C@@H]1O [Kinetin Riboside]
[3]
  % CD3 negative: 70.8%
Primary human T cells
  Cell Yield: 1668

## C[n+]1cc2c3c(ccc2c2ccc4cc5c(cc4c21)OCO5)OCO3 [Sanguinarine Sulfate]
[3]
  % CD3 negative: 71.1%
Primary human T cells
  Cell Yield: 2346

## CCN(CC)CCOc1ccc2c(c1)C(=O)c1cc(OCCN(CC)CC)ccc1-2 [Tilorone]
[3]
  % CD3 negative: 86.8%
[5]
  efficiency of TCRα disruption (proportion of CD3-negative cells), in words: Enhance MegaTAL-Mediated Gene Disruption
Primary human T cells
  Cell Yield: 310
